PMC6095690, “Coalescing beneficial host and deleterious antiparasitic actions as an antischistosomal strategy” (eLife, 2018)
Read-outs that look alike come from different tables or passages of the source.

What was measured:
[1] = test system: S. mansoni (mature infection in Swiss Webster mice); assay: hepatic shift assay in infected mice; settings: intraperitoneal, sacrificed three hours later; dose not given
[2] = test system: adult S. mansoni parasites; assay: adult worm movement assay ex vivo; design: species or system Schistosoma mansoni; settings: for IC50 / EC50: Schistosoma mansoni, ± 95% confidence interval; for IC50: read-out: IC50 for inhibition of 5-HT evoked movement, 5-HT 200 µM; for EC50: read-out: EC50 for stimulation of adult schistosome movement
[3] = biological target: T1, Sm.5HTRL (Schistosoma mansoni, UniProt A0A173FEI8); assay: cell-based; settings: for fold induction at 10 µM: HEK293, read-out: Sm.5HTRL agonism (fold change luminescence)
[4] = biological target: T1, Sm.5HTRL
[5] = test system: S. mansoni (mature infection in Swiss Webster mice); assay: curative efficacy against mature infection in mice (survival, worm burden, egg counts, organ weights)
[6] = test system: immature S. mansoni (infection in mice); assay: curative efficacy against immature infection in mice (dosing weeks 3-4 post infection); settings: dosing 3–4 weeks post infection, worm burden at 7 weeks; ERG 60 mg/kg, PZQ 50 mg/kg
[7] = test system: liver signaling pathways; assay: Ingenuity Pathway Analysis of transcripts differentially expressed in drug treated livers relative to control infections; type: in vivo, mouse
[8] = test system: parental HEK293 cell line expressing the GloSensor 22F cAMP sensor and lacking Sm.5HTRL; assay: counter-screen of agonist hits: basal cAMP luminescence in parental reporter line; type: cell-based
[9] = test system: immature S. mansoni; assay: movement of immature worms harvested 4 weeks post infection, ex vivo; design: species or system Schistosoma mansoni; settings: male worms 4 weeks post infection
Text: Figure 6. […] Figure 6—figure supplement 1. […] Scale = 50 µm. [drawing 7]

[10] = biological target: Sj.5HTR (Schistosoma japonicum, UniProt A0A346LTY2); assay: cell-based
[11] = biological target: Sh.5HTR (Schistosoma haematobium, UniProt A0A922S615); type: cell-based; settings: receptor transiently transfected into stable HEK293 cAMP reporter line; read-out: EC50 of cAMP luminescence response
[12] = test system: adult S. mansoni male and female pairs; assay: egg laying assay of worm pairs cultured ex vivo; settings: 100 µM, five days
[13] = agonist hit counter screen, cells lacking Sm.5HTRL
[14] = primary screen, compound 10 µM then 5-HT 1 µM, 384 well, single replicate

T1 sequence (A0A173FEI8 1-547): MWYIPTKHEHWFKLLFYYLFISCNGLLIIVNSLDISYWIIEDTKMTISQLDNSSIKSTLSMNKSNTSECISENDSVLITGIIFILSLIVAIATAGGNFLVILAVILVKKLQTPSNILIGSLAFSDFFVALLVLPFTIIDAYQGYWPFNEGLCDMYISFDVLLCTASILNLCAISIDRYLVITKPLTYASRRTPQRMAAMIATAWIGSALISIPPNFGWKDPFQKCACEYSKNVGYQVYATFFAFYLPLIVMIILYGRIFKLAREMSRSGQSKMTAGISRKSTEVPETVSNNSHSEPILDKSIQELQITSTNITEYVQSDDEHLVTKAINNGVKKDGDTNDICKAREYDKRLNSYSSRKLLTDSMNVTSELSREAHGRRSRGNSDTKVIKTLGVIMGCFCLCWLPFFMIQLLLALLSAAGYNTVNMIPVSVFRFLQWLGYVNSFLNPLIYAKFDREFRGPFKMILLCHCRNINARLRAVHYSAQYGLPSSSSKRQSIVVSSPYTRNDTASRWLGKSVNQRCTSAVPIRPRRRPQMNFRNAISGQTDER
Sequence of Sj.5HTR (A0A346LTY2 entry or part of it): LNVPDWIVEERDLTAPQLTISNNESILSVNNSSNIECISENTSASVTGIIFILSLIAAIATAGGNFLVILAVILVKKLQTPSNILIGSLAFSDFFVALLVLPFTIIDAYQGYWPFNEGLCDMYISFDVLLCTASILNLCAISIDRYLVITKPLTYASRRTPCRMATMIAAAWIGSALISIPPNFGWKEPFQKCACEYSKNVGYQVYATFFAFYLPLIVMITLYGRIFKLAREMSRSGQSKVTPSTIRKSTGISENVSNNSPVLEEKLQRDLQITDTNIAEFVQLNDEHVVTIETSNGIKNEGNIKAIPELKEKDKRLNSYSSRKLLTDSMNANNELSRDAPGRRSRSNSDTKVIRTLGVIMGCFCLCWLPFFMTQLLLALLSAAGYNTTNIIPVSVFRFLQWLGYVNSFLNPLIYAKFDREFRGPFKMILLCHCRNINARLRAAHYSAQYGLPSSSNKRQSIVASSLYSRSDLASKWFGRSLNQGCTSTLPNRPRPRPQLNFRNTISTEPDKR

## CC(C)C[C@H]1C(=O)N2CCC[C@H]2[C@]2(O)O[C@](NC(=O)[C@@H]3C=C4c5cccc6[nH]c(Br)c(c56)C[C@H]4N(C)C3)(C(C)C)C(=O)N12 [bromocriptine, Bromocriptine]
[1]
  percentage of worms in the liver: 2.0 ± 2.8%
[2]; ex vivo
  IC50: 0.331 ± 0.271 µM
[2]; preincubation 1 µM, Figure 4B
  5-HT (200 µM) stimulation of worm movement after preincubation with antagonist: 5-HT stimulation was not observed
[3]
  IC50: 1.6 ± 0.4 µM
[4]
  type of activity at schistosome 5-HTRs: antagonists

## O=C(C1CCCCC1)N1CC(=O)N2CCc3ccccc3C2C1 (centres unmarked) [PZQ, praziquantel]
[5]; PZQ 50 mg/kg for one week from 42 days p.i.
  lethality through 15 weeks: no observed lethality
[5]; ergotamine 60 mg/kg twice daily or PZQ 50 mg/kg, 42–49 days p.i.
  reduction in intestinal egg burden: 99.9 ± 0.1%
[5]; one week treatment starting at 42 days p.i.
  effect on hepatosplenomegaly: did not prevent spleen and liver enlargement
[6]
  effect on immature infection: lack of effect
[7]
  effect on gene products associated with HSC activation: little to no effect

## Nc1ncnc2c1ncn2C1OC(CO)C(O)C1O (centres unmarked) [compound 7652]
[8]; [13]
  (-)Sm.5HTRL fold change: 7.802 fold change
[4]; agonist hit validation
  (+) Sm.5HTRL fold change: 49.711 fold change

## COc1cc(C)c2c(c1C=O)Oc1c(c(C)c(O)c3c1C(O)OC3=O)OC2=O (centres unmarked) [compound 87511]
[3]
  fold induction at 10 µM: 0.635
[4]; [14]
  Sm.5HTRL antagonism (% of control 5-HT response): 0.8125 % of control 5-HT response

## CN1C[C@H](C(=O)N[C@]2(C)O[C@@]3(O)[C@@H]4CCCN4C(=O)[C@H](Cc4ccccc4)N3C2=O)C[C@@H]2c3cccc4[nH]cc(c34)C[C@H]21 [dihydroergotamine, Dihydroergotamine, reference compound]
[4]
  type of activity at schistosome 5-HTRs: full agonists

## CCN(CC)C(=O)[C@@H]1C=C2c3cccc4[nH]c(Br)c(c34)C[C@H]2N(C)C1 [BOL-148, 2-Bromo-LSD]
[1]
  percentage of worms in the liver: 5.2 ± 2.3%
[2]; ex vivo
  IC50: 0.0288 ± 0.0231 µM
[2]; inhibition of 5-HT evoked movement
  potency relative to bromocriptine: ~ 10 fold
[3]
  IC50: 0.1 ± 0.02 µM
[4]
  type of activity at schistosome 5-HTRs: antagonists

## CNC[C@@H](O)c1ccc(O)c(O)c1 [compound 62786]
[8]; [13]
  (-)Sm.5HTRL fold change: 88.8519 fold change
[4]; agonist hit validation
  (+) Sm.5HTRL fold change: 230.23 fold change

## Nc1nc(Cl)nc2c1ncn2C1OC(CO)C(O)C1O (centres unmarked) [ST088476]
[8]; [13]
  (-)Sm.5HTRL fold change: 3.8 fold change
[4]; agonist hit validation
  (+) Sm.5HTRL fold change: 23.2211 fold change

## CCN(CC)C(=O)N[C@H]1C[C@@H]2c3cccc4[nH]cc(c34)C[C@H]2N(C)C1 [terguride, Terguride, reference compound]
[3]
  IC50: 0.4 ± 0.05 µM
[4]
  type of activity at schistosome 5-HTRs: antagonists

## CC1=CC(=O)c2c(O)cccc2C1=O [ST069355]
[4]
  (+) Sm.5HTR 5-HT response (% of DMSO): 0.03935 % of DMSO

## COc1cc(C(=O)NCCOc2ccccc2C)cc(OC)c1OC [ST005872]
[8]; [13]
  (-)Sm.5HTRL fold change: 0.7305 fold change
[4]; agonist hit validation
  (+) Sm.5HTRL fold change: 10.4008 fold change

## CCN(CC)C(=O)[C@@H]1C=C2c3cccc4[nH]cc(c34)C[C@H]2N(C)C1 [LSD, reference compound]
[2]; ex vivo
  EC50: 1.4 ± 0.5 µM
[4]
  type of activity at schistosome 5-HTRs: partial agonist

## COc1ccc(C2CC(=O)c3c(O)cc(OC4OC(CO)C(O)C(O)C4OC4OC(C)C(O)C(O)C4O)cc3O2)cc1O (centres unmarked) [compound 31048]
[3]
  fold induction at 10 µM: 1.32
[4]; [14]
  Sm.5HTRL antagonism (% of control 5-HT response): 1.138 % of control 5-HT response

## CC(C)C[C@H]1C(=O)N2CCC[C@H]2[C@]2(O)O[C@](NC(=O)[C@@H]3C=C4c5cccc6[nH]cc(c56)C[C@H]4N(C)C3)(C(C)C)C(=O)N12 [α-ergocryptine, reference compound]
[4]
  type of activity at schistosome 5-HTRs: inactive

## CCN1C[C@]2(COC)[C@H](O)C[C@H](OC)[C@]34C1[C@H]([C@H](OC)[C@H]23)[C@]1(OC(C)=O)[C@H]2[C@@H](OC(=O)c3ccccc3)[C@](O)(C[C@H]24)[C@@H](OC)[C@@H]1O [compound 56464]
[4]
  Sm.5HTRL agonism (fold change luminescence): 1.997 fold change luminescence
  Sm.5HTRL antagonism (% of control 5-HT response): 1.042 % of control 5-HT response

## CNC[C@H](O)c1ccc(O)c(O)c1 [ST069368]
[8]; [13]
  (-)Sm.5HTRL fold change: 94.1 fold change
[4]; agonist hit validation
  (+) Sm.5HTRL fold change: 60.6229 fold change

## CC(C)NCC(O)c1ccc(O)c(O)c1 (centres unmarked) [ST077771]
[8]; [13]
  (-)Sm.5HTRL fold change: 15.0437 fold change
[4]; agonist hit validation
  (+) Sm.5HTRL fold change: 12.8429 fold change

## Cl.NCCc1c[nH]c2ccc(Br)cc12 [ST093597]
[8]
  (-)Sm.5HTRL fold change: 1.1795 fold change
[4]; hek293 cells
  (+) Sm.5HTRL fold change: 15.2823 fold change

## Br.Oc1ccc(CC2NCCc3cc(O)c(O)cc32)cc1O (centres unmarked) [ST056944]
[8]
  (-)Sm.5HTRL fold change: 56.3 fold change
[4]; hek293 cells
  (+) Sm.5HTRL fold change: 28.3016 fold change

## C=C[C@@]1(C)CC(=O)[C@@]2(O)[C@](C)(O1)[C@@H](OC(C)=O)[C@@H](O)C1C(C)(C)CC[C@H](O)[C@@]12C (some centres unmarked) [ST095786]
[8]; [13]
  (-)Sm.5HTRL fold change: 121.8 fold change
[4]; agonist hit validation
  (+) Sm.5HTRL fold change: 95.4625 fold change

## NCCc1c[nH]c2ccc(O)cc12 [5-HT, serotonin]
[9]
  effect on movement of juvenile worms: stimulated movement of juvenile worms
[2]; ex vivo
  EC50: 51.6 ± 3 µM
[2]; ex vivo, 5-HT at 200 µM
  effect on adult worm movement: increased worm movement
[10]
  EC50: 0.003 ± 0.0003 µM
[3]
  EC50: 0.076 ± 0.001 µM
[3]; HEK293, read-out: elevation in luminescence values (fold increase)
  fold induction at 1 µM: 70 to 110
[11]
  EC50: 0.0036 ± 0.0003 µM
[12]
  reduction of egg laying ex vivo: 82.4 ± 2.2 % reduction

## CN1C[C@H](C(=O)N[C@]2(C)O[C@@]3(O)[C@@H]4CCCN4C(=O)[C@H](Cc4ccccc4)N3C2=O)C[C@@H]2c3cccc4[nH]cc(c34)C[C@H]21.CS(=O)(=O)O [ST056346]
[8]; [13]
  (-)Sm.5HTRL fold change: 1.4 fold change
[4]
  (+) Sm.5HTRL fold change: 94.3413 fold change

## Cc1ccc2[nH]c(CCN)cc2c1.Cl [ST070930]
[8]; [13]
  (-)Sm.5HTRL fold change: 1.1 fold change
[4]; agonist hit validation
  (+) Sm.5HTRL fold change: 17.0489 fold change

## COC(=O)C1=COC(C)C2CN3CCc4c([nH]c5cc(OC)c(OC)cc45)C3CC12.O=C(O)CC(O)(CC(=O)O)C(=O)O (centres unmarked) [compound 72715]
[8]; [13]
  (-)Sm.5HTRL fold change: 0.9445 fold change
[4]; agonist hit validation
  (+) Sm.5HTRL fold change: 54.6116 fold change

## Nc1ncnc2c1ncn2[C@@H]1O[C@H](CO)[C@@H](O)[C@H]1O [ST009496]
[8]; [13]
  (-)Sm.5HTRL fold change: 3.9 fold change
[4]; agonist hit validation
  (+) Sm.5HTRL fold change: 24.237 fold change

## Nc1ncnc2c1ncn2[C@@H]1O[C@H](COP(=O)(O)OP(=O)(O)O)[C@@H](O)[C@H]1O [ST057097]
[8]; [13]
  (-)Sm.5HTRL fold change: 1.0 fold change
[4]; agonist hit validation
  (+) Sm.5HTRL fold change: 11.9433 fold change

## C=C[C@]1(C)C=C2CC[C@@H]3[C@](C)(CCC[C@@]3(C)C(=O)O)[C@H]2CC1 [compound 6435]
[8]; [13]
  (-)Sm.5HTRL fold change: 0.9901 fold change
[4]; agonist hit validation
  (+) Sm.5HTRL fold change: 200.129 fold change

## CNCCc1c[nH]c2ccc(O)cc12.O=C(O)C(=O)O [ST055634]
[8]; [13]
  (-)Sm.5HTRL fold change: 1.3 fold change
[4]; hek293 cells
  (+) Sm.5HTRL fold change: 165.214 fold change

## CN1CC(C(=O)NC2(C)OC3(O)C4CCCN4C(=O)C(Cc4ccccc4)N3C2=O)C=C2c3cccc4[nH]cc(c34)CC21.O=C(O)C(O)C(O)C(=O)O (centres unmarked) [ST072185]
[8]
  (-)Sm.5HTRL fold change: 1.0 fold change
[4]
  (+) Sm.5HTRL fold change: 29.8904 fold change

## C[C@@H](CO)NC(=O)[C@@H]1C=C2c3cccc4[nH]cc(c34)C[C@H]2N(C)C1 [ST057158]
[8]; [13]
  (-)Sm.5HTRL fold change: 1.1 fold change
[4]
  (+) Sm.5HTRL fold change: 15.5169 fold change

## COc1cc2c(c(OC)c1OC)-c1ccc(OC)c(=O)cc1[C@@H](NC(C)=O)CC2 [compound 757]
[4]
  Sm.5HTRL agonism (fold change luminescence): 1.502 fold change luminescence
  Sm.5HTRL antagonism (% of control 5-HT response): 1.228 % of control 5-HT response

## O=c1ccc2nc3ccc(O)cc3oc-2c1 [compound 12097]
[3]
  fold induction at 10 µM: 0.635
[4]; [14]
  Sm.5HTRL antagonism (% of control 5-HT response): 0.7238 % of control 5-HT response

## CNCC(O)c1ccc(O)cc1 (centres unmarked) [ST095769]
[8]; [13]
  (-)Sm.5HTRL fold change: 2.535 fold change
[4]; agonist hit validation
  (+) Sm.5HTRL fold change: 11.737 fold change

## NCCc1c[nH]c2cccc(OC(=O)c3ccc(C(=O)O)cc3)c12 [ST070282]
[8]; [13]
  (-)Sm.5HTRL fold change: 1.366 fold change
[4]; hek293 cells
  (+) Sm.5HTRL fold change: 12.6864 fold change
